Reference: ChEMBL document CHEMBL1142604, “Chamazulene carboxylic acid and matricin: a natural profen and its natural prodrug, identified through similarity to synthetic drug substances” (J Nat Prod, 2006)

Experiments:
[1] = tested on: Rattus norvegicus; assay: Antiinflammatory activity in rat assessed as inhibition of carrageenan-induced right paw edema at 300 mg/kg after 1 hr; type: functional
[2] = tested on: Rattus norvegicus; assay: Antiinflammatory activity in rat assessed as inhibition of carrageenan-induced right paw edema at 600 mg/kg after 1 hr; type: functional
[3] = tested on: Rattus norvegicus; assay: Antiinflammatory activity in rat assessed as inhibition of carrageenan-induced right paw edema at 600 mg/kg after 3 hrs; type: functional
[4] = tested on: Mus musculus; assay: Antiinflammatory activity in mouse assessed as inhibition of phorbol […]-induced ear lobe edema at 0.1 umol/ear after 48 hrs relative to control; type: functional
[5] = tested on: Mus musculus; assay: Antiinflammatory activity in mouse assessed as inhibition of phorbol […]-induced ear lobe edema; type: functional; set-up: scale not given: the % may be the effect or the level left
[6] = Dissociation constant, pKa of the compound; type: physicochemical
[7] = AUC (0 to infinity) in human at 500 mg, po; type: ADME, organism-based; set-up: dose 500 mg, time infinity, route oral; settings: plasma
[8] = Elimination constant, beta in human at 500 mg, po; type: ADME, organism-based; settings: in vivo
[9] = Plasma concentration in human at 300 mg, po after 25 hrs; type: ADME, organism-based
[10] = Reduction in prostaglandin metabolite level in human urine at 500 mg, po; type: ADME; set-up: scale not given: the % may be the effect or the level left; settings: in vivo
[11] = Lipophilicity, log D at pH 7.4; type: physicochemical; settings: buffer
[12] = target: T1, Prostaglandin G/H synthase 1 (Ovis aries) (UniProt P05979); assay: Inhibition of ram COX1 at 50 uM
T1 sequence (whole entry): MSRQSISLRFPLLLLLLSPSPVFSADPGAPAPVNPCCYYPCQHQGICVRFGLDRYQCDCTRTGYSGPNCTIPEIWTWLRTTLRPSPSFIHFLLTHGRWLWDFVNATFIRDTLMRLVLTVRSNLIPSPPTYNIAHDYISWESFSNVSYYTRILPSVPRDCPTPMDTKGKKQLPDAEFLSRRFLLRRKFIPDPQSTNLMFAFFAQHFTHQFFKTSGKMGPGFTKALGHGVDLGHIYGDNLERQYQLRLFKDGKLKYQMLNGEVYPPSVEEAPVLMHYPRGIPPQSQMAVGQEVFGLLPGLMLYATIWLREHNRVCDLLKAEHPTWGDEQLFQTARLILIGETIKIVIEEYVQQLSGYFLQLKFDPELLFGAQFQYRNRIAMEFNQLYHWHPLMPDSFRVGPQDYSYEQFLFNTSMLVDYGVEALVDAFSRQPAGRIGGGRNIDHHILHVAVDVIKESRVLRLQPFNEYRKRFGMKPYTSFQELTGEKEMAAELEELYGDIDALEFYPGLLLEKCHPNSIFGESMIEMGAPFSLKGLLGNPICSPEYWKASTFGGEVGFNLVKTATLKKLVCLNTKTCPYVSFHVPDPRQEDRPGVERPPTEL

[13] = Plasma concentration in human at 300 mg, po after 5 hrs; type: ADME, organism-based
[14] = species on record: Homo sapiens; assay: Plasma concentration in human by HPLC assay; type: ADME, organism-based; settings: in vivo
[15] = tested on: Mus musculus; assay: Antiinflammatory activity in mouse assessed as inhibition of phorbol […]-induced ear lobe edema at 1 umol/ear after 24 hrs; type: functional
[16] = tested on: Mus musculus; assay: Antiinflammatory activity in mouse assessed as inhibition of phorbol […]-induced ear lobe edema at 1 umol/ear after 6 hrs relative to control; type: functional
[17] = Elimination half life in human at 500 mg, po; type: ADME, organism-based; settings: in vivo, read-out: beta t1/2 (converted)
[18] = tested on: Homo sapiens; assay: Volume of distribution in human at 500 mg, po; type: ADME, organism-based; settings: in vivo
[19] = Cmax in human at 500 mg, po; type: ADME, organism-based; set-up: dose 500 mg, route oral; settings: in vivo
[20] = tested on: Mus musculus; assay: Antiinflammatory activity in mouse assessed as inhibition of phorbol […]-induced ear lobe edema at 1 umol/ear after 48 hrs relative to control; type: functional
[21] = Plasma concentration in human at 300 mg, po after 2.5 hrs; type: ADME, organism-based
[22] = Tmax in human at 500 mg, po; type: ADME, organism-based; settings: in vivo
[23] = tested on: Mus musculus; assay: Antiinflammatory activity in mouse assessed as inhibition of phorbol […]-induced ear lobe edema at 0.1 umol/ear after 24 hrs relative to control; type: functional
[24] = tested on: Homo sapiens; assay: Plasma concentration in human at 500 mg, po after 75 to 90 mins; type: ADME, organism-based; settings: in vivo
[25] = tested on: Mus musculus; assay: Antiinflammatory activity in mouse assessed as inhibition of phorbol […]-induced ear lobe edema at 0.1 umol/ear after 6 hrs relative to control; type: functional
[26] = tested on: Homo sapiens; assay: Absorption coefficient, Ka in human at 500 mg, po; type: ADME, organism-based; settings: in vivo
[27] = Metabolic stability in artificial gastric fluid assessed as transformation to chamazulene carboxylic acid after 60 mins; type: physicochemical; settings: simulated gi fluid, 1 h

Structure (SMILES): Cc1ccc([C@H](C)C(=O)OCOC(=O)C(C)(C)C)cc2c(C)ccc1-2
- inhibition in vivo at 300 mg/kg [1]: 34.8%

Structure (SMILES): COC(=O)[C@@H](C)c1ccc(C)c2ccc(C)c-2c1
- inhibition in vivo at 300 mg/kg [1]: 22.8%

Structure (SMILES): CC(=O)Oc1ccccc1C(=O)O [ASPIRIN]
- inhibition in vivo at 600 mg/kg [2]: 92.4%
- inhibition in vivo at 600 mg/kg [3]: 77.3%

Structure (SMILES): Cc1ccc([C@H](C)C(=O)O)cc2c(C)ccc1-2 [CHAMAZULENE CARBOXYLIC ACID]
- inhibition (INH) [4]: 35%
- Activity [5]: 23%
- pKa [6]: 4.14
- inhibition in vivo at 300 mg/kg [1]: 17.4%
- AUC(0-inf) [7]: 14700 ng·h/mL
- k el [8]: 4.72e-05 s⁻¹
- concentration at 25 h [9]: 2900 ng/mL
- Activity [10]: 40%
- logD [11]: 0.79
- inhibition [12]: 17.4%
- concentration at 5 h [13]: 2400 ng/mL
- Cp [14]: 0.1 µg/mL
- inhibition (INH) [15]: 14%
- inhibition (INH) [16]: 38%
- half-life [17]: 240 min
- Vd [18]: 133 L
- Cmax [19]: 900 ng/mL
- inhibition (INH) [20]: 24%
- concentration at 2.5 h [21]: 1700 ng/mL
- Tmax [22]: 1.25 h
- inhibition (INH) [23]: 19%
- Cp [24]: 0.9 µg/mL
- inhibition (INH) [25]: 12%
- Ka [26]: 0.53 h⁻¹

Structure (SMILES): CC(C)Cc1ccc([C@H](C)C(=O)O)cc1 [DEXIBUPROFEN]
- logD [11]: 1.07

Structure (SMILES): CC(C(=O)O)c1ccc(-c2ccccc2)c(F)c1 (stereo not drawn) [FLURBIPROFEN]
- pKa [6]: 4.6
- logD [11]: 0.85

Structure (SMILES): CC(=O)O[C@H]1CC(C)=C2C=C[C@@](C)(O)[C@@H]2[C@H]2OC(=O)[C@@H](C)[C@@H]21 [MATRICIN]
- Stability [27]: Stable

Structure (SMILES): COc1ccc2cc([C@H](C)C(=O)O)ccc2c1 [NAPROXEN]
- inhibition (INH) [4]: 18%
- Activity [5]: 59%
- inhibition (INH) [16]: 45%
- inhibition (INH) [20]: 25%
- inhibition (INH) [23]: 21%
- inhibition (INH) [25]: 28%
